Experimental data reported in paper PMC5504357, “Antifungal Potential of Copper(II), Manganese(II) and Silver(I) 1,10-Phenanthroline Chelates Against Multidrug-Resistant Fungal Species Forming the Candida haemulonii Complex: Impact on the Planktonic and Biofilm Lifestyles” (Frontiers in Microbiology, 2017).

Experiments:
Candida duobushaemulonii [1] = assay: Planktonic growth, broth microdilution (CLSI M27-A3), MIC; assay type: cell-based; conditions: for GM-MIC: geometric mean of three C. duobushaemulonii isolates; for MIC: planktonic, 48 h, 37°C
Summary of the method: (§1)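 Three clinical isolates per species (nail, blood, urine origin), grown in Sabouraud-dextrose 48 h at 37°C, were tested by CLSI M27-A3 broth microdilution in RPMI 1640 over 0.0625-32 mg/L. After 48 h at 37°C, MIC was the lowest concentration with no visible growth; the across-isolate value is a geometric mean MIC.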

Candida haemulonii [2] = assay: as above; assay type: cell-based; conditions: for GM-MIC: geometric mean of three C. haemulonii isolates; for MIC: planktonic, 48 h, 37°C
Summary of the method: as §1

[3] = system: Candida haemulonii var. vulnera; assay: as above; assay type: cell-based; conditions: for GM-MIC: geometric mean of three C. haemulonii var. vulnera isolates; for MIC: planktonic, 48 h, 37°C
Summary of the method: as §1

Candida duobushaemulonii [4] = assay: Biofilm-growing cells, XTT assay, bMIC; assay type: cell-based; conditions: for GM-bMIC: geometric mean, C. duobushaemulonii isolates; for bMIC: mature biofilm, 48 h, 50% inhibition of metabolic activity
Summary of the method: (§2)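 Biofilms were grown from 10^6 yeast cells in Sabouraud-dextrose broth for 48 h at 37°C, washed three times with PBS pH 7.2, then exposed to compounds (same concentrations as planktonic assays) for another 48 h at 37°C. Metabolic activity was read by XTT reduction; bMIC is the lowest concentration giving 50% inhibition versus compound-free wells.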

Candida haemulonii [5] = assay: Biofilm-growing cells, XTT assay, bMIC; assay type: cell-based; conditions: for GM-bMIC: geometric mean, C. haemulonii isolates, values marked * do not include LIP Ch4 (>512); for bMIC: mature biofilm, 48 h, 50% inhibition of metabolic activity
Summary of the method: as §2

[6] = system: Candida haemulonii var. vulnera; assay: Biofilm-growing cells, XTT assay, bMIC; assay type: cell-based; conditions: for GM-bMIC: geometric mean, C. haemulonii var. vulnera isolates; for bMIC: mature biofilm, 48 h, 50% inhibition of metabolic activity
Summary of the method: as §2

A549 cells = assay: Mammalian cell toxicity (MTT assay) and selectivity index; assay type: cell-based, Human; conditions: MTT, 48 h incubation
Summary of the method: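 A549 cells were exposed to compounds (0.0313–512 μg/mL) in DMEM for 48 h at 37 °C, 5% CO2. Viability was measured by MTT (3 h, dark), with formazan dissolved in DMSO and read at 450 nm. CC50 was derived, and SI calculated as A549 CC50 divided by C. haemulonii complex GM-MIC.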

C. haemulonii complex = assay: Planktonic growth, overall across all nine isolates; assay type: cell-based, Candida haemulonii complex; conditions: geometric mean across all nine strains; for MIC: in μM, read-out: Overall GM-MIC
Summary of the method: as §1

[7] = system: Candida haemulonii complex; assay: Biofilm-growing cells, overall across isolates; assay type: cell-based; conditions: for Overall GM-bMIC: geometric mean across strains, values marked * do not include LIP Ch4 (>512); for decrease in activity on going from planktonic to biofilm cells: biofilm MIC versus planktonic MIC
Summary of the method: as §2

| Structure (SMILES) | GM-MIC (Candida duobushaemulonii [1]) [µg/mL] | MIC (Candida duobushaemulonii [1]; isolate LIP Ch1) [µg/mL] | MIC (Candida duobushaemulonii [1]; isolate LIP Ch6) [µg/mL] | MIC (Candida duobushaemulonii [1]; isolate LIP Ch8) [µg/mL] | GM-MIC (Candida haemulonii [2]) [µg/mL] | MIC (Candida haemulonii [2]; isolate LIP Ch4) [µg/mL] | MIC (Candida haemulonii [2]; isolate LIP Ch7) [µg/mL] | MIC (Candida haemulonii [2]; isolate LIP Ch12) [µg/mL] | GM-MIC [3] [µg/mL] | MIC ([3]; isolate LIP Ch5) [µg/mL] | MIC ([3]; isolate LIP Ch9) [µg/mL] | MIC ([3]; isolate LIP Ch11) [µg/mL] | GM-bMIC (Candida duobushaemulonii [4]) [mg/L] | bMIC (Candida duobushaemulonii [4]; isolate LIP Ch1) [mg/L] | bMIC (Candida duobushaemulonii [4]; isolate LIP Ch6) [mg/L] | bMIC (Candida duobushaemulonii [4]; isolate LIP Ch8) [mg/L] | GM-bMIC (Candida haemulonii [5]) | bMIC (Candida haemulonii [5]; isolate LIP Ch4) [mg/L] | bMIC (Candida haemulonii [5]; isolate LIP Ch7) [mg/L] | bMIC (Candida haemulonii [5]; isolate LIP Ch14) [mg/L] | also measured |
| --- | --- | --- | --- | --- | --- | --- | --- | --- | --- | --- | --- | --- | --- | --- | --- | --- | --- | --- | --- | --- | --- |
| CCO.O=C([O-])CCCCCCC(=O)[O-].[Cu+2].[Cu+2].[O-][Cl+3]([O-])([O-])[O-].[O-][Cl+3]([O-])([O-])[O-].c1cnc2c(c1)ccc1cccnc12.c1cnc2c(c1)ccc1cccnc12.c1cnc2c(c1)ccc1cccnc12.c1cnc2c(c1)ccc1cccnc12 [compound 5, [Cu2(oda)(phen)4](ClO4)2.2.76H2O.EtOH] | 8 | 8 | 8 | 8 | 10.08 | 8 | 8 | 16 | 10.08 | 8 | 16 | 8 | 16 | 32 | 8 | 16 | 20.16 mg/L | 32 | 16 | 16 | GM-bMIC [6]: 16 mg/L; bMIC ([6]; isolate LIP Ch5): 32 mg/L; bMIC ([6]; isolate LIP Ch9): 8 mg/L; bMIC ([6]; isolate LIP Ch13): 16 mg/L; A549 (CC50) (A549 cells): 0.98 µg/mL; Overall GM-MIC (C. haemulonii complex): 9.33 µg/mL; MIC (C. haemulonii complex): 7.09 µM; Overall GM-bMIC ([7]; in μM): 13.19 µM; Overall GM-bMIC [7]: 17.28 mg/L |
| O=C1C(=O)c2cccnc2-c2ncccc21.O=C1C(=O)c2cccnc2-c2ncccc21.[Ag+].[O-][Cl+3]([O-])([O-])[O-] [compound 15, [Ag(phendione)2]ClO4] | 2 | 2 | 2 | 2 | 1 | 1 | 1 | 1 | 1.26 | 2 | 1 | 1 | 10.08 | 8 | 32 | 4 | 11.31^* mg/L | >512 | 8 | 16 | GM-bMIC [6]: 32 mg/L; bMIC ([6]; isolate LIP Ch5): 32 mg/L; bMIC ([6]; isolate LIP Ch9): 32 mg/L; bMIC ([6]; isolate LIP Ch13): 32 mg/L; A549 (CC50) (A549 cells): 3.76 µg/mL; Overall GM-MIC (C. haemulonii complex): 1.36 µg/mL; MIC (C. haemulonii complex): 2.16 µM; decrease in activity on going from planktonic to biofilm cells [7]: 11.8 fold; Overall GM-bMIC ([7]; in μM): 25.48 µM; Overall GM-bMIC [7]: 16 mg/L |
| O.O.O.O=C([O-])CCCCCCCCCC(=O)[O-].[Ag+].[Ag+].c1cnc2c(c1)ccc1cccnc12.c1cnc2c(c1)ccc1cccnc12.c1cnc2c(c1)ccc1cccnc12 [compound 18, [Ag2(phen)3(udda)].3H2O] | 0.5 | 0.5 | 0.25 | 1 | 0.16 | 0.125 | 0.25 | 0.125 | 0.25 | 0.5 | 0.125 | 0.25 | 10.08 | 16 | 8 | 8 | 16 mg/L | 32 | 8 | 16 | GM-bMIC [6]: 11.31 mg/L; bMIC ([6]; isolate LIP Ch5): 8 mg/L; bMIC ([6]; isolate LIP Ch9): 0.5 mg/L; bMIC ([6]; isolate LIP Ch13): 16 mg/L; A549 (CC50) (A549 cells): 13.63 µg/mL; Overall GM-MIC (C. haemulonii complex): 0.27 µg/mL; MIC (C. haemulonii complex): 0.26 µM; decrease in activity on going from planktonic to biofilm cells [7]: 46.3 fold; Overall GM-bMIC ([7]; in μM): 12.04 µM; Overall GM-bMIC [7]: 12.34 mg/L |
| CCO.O.O.O.O.O.O.O=C([O-])c1cccc(C(=O)[O-])c1.[Cu+2].c1cnc2c(c1)ccc1cccnc12.c1cnc2c(c1)ccc1cccnc12 [compound 3, [Cu(isoph)(phen)2].6H2O.EtOH] | 5.04 | 4 | 8 | 4 | 10.08 | 8 | 8 | 16 | 6.35 | 4 | 8 | 8 | 12.70 | 32 | 8 | 8 | 20.16 mg/L | 32 | 16 | 16 | GM-bMIC [6]: 12.70 mg/L; bMIC ([6]; isolate LIP Ch5): 16 mg/L; bMIC ([6]; isolate LIP Ch9): 8 mg/L; bMIC ([6]; isolate LIP Ch13): 16 mg/L; A549 (CC50) (A549 cells): 0.89 µg/mL; Overall GM-MIC (C. haemulonii complex): 6.86 µg/mL; MIC (C. haemulonii complex): 9.21 µM; Overall GM-bMIC ([7]; in μM): 19.95 µM; Overall GM-bMIC [7]: 14.81 mg/L |
